Reference: patent EP2357172B1, “Process for the preparation of pimozide” (Institut Univ. de Ciència i Tecnologia, S.A., priority 2006, dated 2008)

Legend:
rats [1] = settings: cited from earlier work
[2] = cited from earlier work
rats [3] = experiment: Oral lethal dose (LD50) in rats, from safety data sheets; format: in vivo; settings: glycerol formal compared with MIBK
Description: The data for MIBK were obtained from the International Chemical Safety Card published by "Instituto Nacional de Seguridad e Higiene en el Trabajo" (National Institute for Occupational Safety and Hygiene). The data for glycerol formal were obtained from the most recent manufacturer's standard safety data sheet.

Compound	LD50(oral-rats, g/kg) (rats [1]) [g/kg]	Solubility in H2O (g/L) [2]	lethal dose in rats (ingestion) relative to MIBK (rats [3])
CC(=O)CC(C)C [MIBK, methylisobutylketone]	2.1	–	–
GLYCEROL FORMAL	10	Miscible in all proportions	five times higher
